3 substances from patent publication US20100183546A1, “Method for Increasing CD8+ Cytotoxic T Cell Responses and for Treating Multiple Sclerosis” (Baylor College of Medicine, priority 2003, published 2010) can be followed below.

In this experiment the test system is CD8+ T cells in CD4-depleted PBMC. Description: Precursor frequency analysis of CD8+ T cells recognizing MBP-derived peptides (split-well method, [3H]-thymidine proliferation). The experiment is classed as cell-based, human. As to conditions: MS patients vs healthy controls; p<0.05 for MBP111-119 and MBP87-95.

On to “MBPVVHFFKNIV [SEQ ID NO. 1, Fragment of human MBP, amino acids 87-95]”, for which the “frequency of peptide-recognizing CD8+ T cells in MS patients compared with control subjects” value was “considerably higher”.
Then “SLSRFSWGA [SEQ ID NO. 2, Fragment of human MBP, amino acids 111-119]”, with “considerably higher”.
As to “immunodominant epitope (residues 830-838) of tetanus toxoid: synthetic peptide corresponding to an immunodominant peptide of tetanus toxoid (residues 830-838), used as control (QYIKANSKF; UniProt P04958 830-838, looked up, fragment) [reference compound]”, the “frequency of peptide-recognizing CD8+ T cells in MS patients compared with control subjects” value is reported as “did not differ significantly”.
